Legend:
Type in all cases: cell-based, Human
H1299 NSCLC cell line = experiment: Clonogenic survival, TTFields + Olaparib combination (Highest Single Agent CI); conditions: for CI TTFields + Olap 10 μM: Olaparib 10 μM; for CI TTFields + Olap 10 μM / CI TTFields + Olap 20 μM / CI TTFields + Olap 40 μM: CI>1 = synergistic; for CI TTFields + Olap 20 μM: Olaparib 20 μM; for CI TTFields + Olap 40 μM: Olaparib 40 μM
Description: (§1) Experiments similar to those discussed above in connection with Table 2 and FIG. 6 were also conducted, but with exposure to IR replaced with exposure to three different concentrations (either 10, 20, and 40 μM; or 12.5, 25, and 50 μM, depending on the cell line) of the PARP inhibitor Olaparib. More specifically, Olaparib at each of the different concentrations was added to cells and the cells were then exposed to TTFields for 30 or 60 h (or not exposed to TTFields for the control) and immediately plated for survival. Baseline growth curves for exposing the various NSCLC cell lines to different concentrations of Olaparib without TTFields are depicted in FIG. 7. Clonogenic assays are depicted in FIG. 8 for the different combinations of drug concentration and TTFields exposure time in Table 3.
(§2) The inventors considered the combined effect of TTFields and Olaparib to be synergistic if the combination index (CI) was >1 and the P-value was <0.05 for a given time point and a given cell line.
(§3) Human NSCLC cell lines (H157, H4006, A549, H1299 and H1650) were purchased from American Tissue Culture Collection. All these cell lines were grown in RPMI medium supplemented with 10% (v/v) fetal bovine serum (Atlanta Biologicals, Flowery Branch, Ga., USA) and penicillin/[…] (final concentration 50 μg/ml; Sigma-Aldrich, St. Louis, Mo., U29SA). All cells were grown at 37° C. in a humidified incubator constantly supplied with 5% CO2.
(§4) The inventors used the inovitro system (NovoCure Ltd, Haifa, Israel) to generate TTFields that use two pairs of electrodes printed perpendicularly on the outer walls of a Petri dish composed of high dielectric constant ceramic (lead magnesium niobate-lead titanite (PMN-PT)). The transducer arrays were connected to a sinusoidal waveform generator that generate low-intensity electric fields at the desired frequencies in the medium as summarized in Table 1 above. The orientation of the TTFields was switched 90° every 1 s, thus covering the majority of the orientation axis of cell divisions, as previously described by Kirson et al. Plate temperature was maintained at 37° C. by placing the plates in a refrigerated incubator where the temperature was maintained at 19° C. to dissipate the heat generated by the inovitro system. The temperature was measured by 2 thermistors (Omega Engineering, Stamford, Conn., USA) attached to the ceramic walls. All cell suspensions were grown on a cover slip inside the inovitro dish (NovoCure Ltd) and treated with TTFields for the times indicated in the figure legends.
(§5) To study the effect of radiation sensitivity on NSCLC cells, exponentially growing cells were treated with IR using a Mark II Cs irradiator (J L Shepherd and Associates) at a dose rate of 3.47 Gy/min, followed by immediate application of TTFields for 24, 48 and 72 h. Cells were then re-seeded into 60 mm dishes and incubated for up to 2 weeks. Colonies containing 50 or more cells were considered viable. The data are presented as the mean±S.E.M. of three independent experiments. The radiosensitization effect of TTFields was evaluated according to The Highest Single Agent approach by calculating the CI as given below. CI=SFIR×SFTTFields)/SFIR+TTFields Where SF=Survivalfraction
(§6) The combination effect was considered enhanced/synergistic when CI>1, additive when CI=1. Statistical significance for a positive effect was determined by the P-value of a two-way ANOVA multiple comparison statistical test comparing the combination (TTFields plus IR) to the single agent showing the greatest cell killing for a given dose and time after IR.

H4006 NSCLC cell line = experiment: as above; conditions: for CI TTFields + Olap 12.5 μM: Olaparib 12.5 μM; for CI TTFields + Olap 12.5 μM / CI TTFields + Olap 25 μM / CI TTFields + Olap 50 μM: CI>1 = synergistic; for CI TTFields + Olap 25 μM: Olaparib 25 μM; for CI TTFields + Olap 50 μM: Olaparib 50 μM
Description: as §1, §2, §3, §4, §5, §6

H157 NSCLC cell line = experiment: as above; conditions: for CI TTFields + Olap 10 μM: Olaparib 10 μM; for CI TTFields + Olap 10 μM / CI TTFields + Olap 20 μM / CI TTFields + Olap 40 μM: CI>1 = synergistic; for CI TTFields + Olap 20 μM: Olaparib 20 μM; for CI TTFields + Olap 40 μM: Olaparib 40 μM
Description: as §1, §2, §3, §4, §5, §6

A549 NSCLC cell line = experiment: as above; conditions: for CI TTFields + Olap 12.5 μM: Olaparib 12.5 μM; for CI TTFields + Olap 12.5 μM / CI TTFields + Olap 25 μM / CI TTFields + Olap 50 μM: CI>1 = synergistic; for CI TTFields + Olap 25 μM: Olaparib 25 μM; for CI TTFields + Olap 50 μM: Olaparib 50 μM
Description: as §1, §2, §3, §4, §5, §6

H1299 cell line [1] = experiment: Clonogenic survival, triple combination of TTFields, IR and Olaparib (CI); conditions: TTFields 48 h, Olaparib 20 μM
H157 cell line = experiment: as above; conditions: Olaparib 20 μM; for CI TTFields + Olap + 1 Gy: 1 Gy IR; for CI TTFields + Olap + 2 Gy: 2 Gy IR; for CI TTFields + Olap: no IR
Description: (§7) Experiments similar to those discussed above in connection with Table 2 and FIG. 6 were also conducted for H1299 and H157 cell lines, both with and without the PARP inhibitor Olaparib. More specifically, Olaparib (at a concentration of 20 μM) was added to cells, the cells were immediately exposed to TTFields for 24, […], or 72 h, removed, irradiated (at different doses of radiation), and immediately plated for survival.
(§8) The combination effect was evaluated using the Highest Single Agent approach and are listed in Table 4 and depicted in FIGS. 9A and 9B, which summarize the clonogenic assays for the different combinations of RT dosage and TTFields exposure time in the table, both with and without the Olaparib.
as §2, §3, §4, §5
(§9) For the Triple Combination of TTFields, IR, and Olaparib, CI was calculated using the following equations: CI(TTFields+olap)=(SFOlap×SFTTFields)/SFOlap+TTFields CI(TTFields+1Gy)=(SF1Gy×SFTTFields)/SF1Gy+TTFields CI(TTFields+2Gy)=(SF2Gy×SFTTFields)/SF2Gy+TTFields CI(TTFields+olap+1Gy)=(SF1Gy+Olap×SFTTFields)/SFOlap+TTFields+1Gy CI(TTFields+olap+2Gy)=(SF2Gy+Olap×SFTTFields)/SFOlap+TTFields+2Gy Where SF=Survival fraction

H1299 cell line [2] = experiment: as above; conditions: Olaparib 20 μM; for CI TTFields + Olap + 1 Gy: 1 Gy IR; for CI TTFields + Olap + 2 Gy: 2 Gy IR; for CI TTFields + Olap: no IR
Description: as §7, §8, §2, §3, §4, §5, §9

[3] = all tested concentrations, synergistic if CI >1 and P <0.05
[4] = synergistic if CI >1 and P <0.05

O=C(c1cc(Cc2n[nH]c(=O)c3ccccc23)ccc1F)N1CCN(C(=O)C2CC2)CC1 [Olaparib]
CI TTFields + Olap 10 μM (H1299 NSCLC cell line; TTFields 30 h): 1.12
CI TTFields + Olap 20 μM (H1299 NSCLC cell line; TTFields 30 h): 1.42
CI TTFields + Olap 40 μM (H1299 NSCLC cell line; TTFields 30 h): 1.9
CI TTFields + Olap 10 μM (H1299 NSCLC cell line; TTFields 60 h): 1.4
CI TTFields + Olap 20 μM (H1299 NSCLC cell line; TTFields 60 h): 1.5
CI TTFields + Olap 40 μM (H1299 NSCLC cell line; TTFields 60 h): 3.7
combined effect of TTFields and Olaparib on cell death (H1299 NSCLC cell line; [3]): synergistic
CI TTFields + Olap 12.5 μM (H4006 NSCLC cell line; TTFields 30 h): 1.17
CI TTFields + Olap 25 μM (H4006 NSCLC cell line; TTFields 30 h): 1.17
CI TTFields + Olap 50 μM (H4006 NSCLC cell line; TTFields 30 h): 1.32
CI TTFields + Olap 12.5 μM (H4006 NSCLC cell line; TTFields 60 h): 1.13
CI TTFields + Olap 25 μM (H4006 NSCLC cell line; TTFields 60 h): 1.34
CI TTFields + Olap 50 μM (H4006 NSCLC cell line; TTFields 60 h): 1.96
combined effect of TTFields and Olaparib on cell death (H4006 NSCLC cell line; [3]): synergistic
CI TTFields + Olap 10 μM (H157 NSCLC cell line; TTFields 30 h): 1.3
CI TTFields + Olap 20 μM (H157 NSCLC cell line; TTFields 30 h): 1.44
CI TTFields + Olap 40 μM (H157 NSCLC cell line; TTFields 30 h): 1.78
CI TTFields + Olap 10 μM (H157 NSCLC cell line; TTFields 60 h): 1.63
CI TTFields + Olap 20 μM (H157 NSCLC cell line; TTFields 60 h): 1.43
CI TTFields + Olap 40 μM (H157 NSCLC cell line; TTFields 60 h): 1.68
combined effect of TTFields and Olaparib on cell death (H157 NSCLC cell line; [3]): synergistic
CI TTFields + Olap 12.5 μM (A549 NSCLC cell line; TTFields 30 h): 1.12
CI TTFields + Olap 25 μM (A549 NSCLC cell line; TTFields 30 h): 1.46
CI TTFields + Olap 50 μM (A549 NSCLC cell line; TTFields 30 h): 1.32
CI TTFields + Olap 12.5 μM (A549 NSCLC cell line; TTFields 60 h): 1.39
CI TTFields + Olap 25 μM (A549 NSCLC cell line; TTFields 60 h): 1.716
CI TTFields + Olap 50 μM (A549 NSCLC cell line; TTFields 60 h): 1.53
combined effect of TTFields and Olaparib on cell death (A549 NSCLC cell line; [3]): synergistic
CI TTFields + Olap + 1 Gy (H1299 cell line [1]; 1 Gy IR): 1.70
CI TTFields + Olap + 2 Gy (H1299 cell line [1]; 2 Gy IR): 2.20
CI TTFields + Olap (H1299 cell line [1]; no IR): 1.02
combined effect of TTFields, IR, and Olaparib on cell death (H157 cell line; [4]): synergistic
CI TTFields + Olap + 1 Gy (H157 cell line; TTFields 24 h): 2.25
CI TTFields + Olap + 2 Gy (H157 cell line; TTFields 24 h): 2.36
CI TTFields + Olap (H157 cell line; TTFields 24 h): 0.97
CI TTFields + Olap + 1 Gy (H157 cell line; TTFields 48 h): 2.12
CI TTFields + Olap + 2 Gy (H157 cell line; TTFields 48 h): 2.07
CI TTFields + Olap (H157 cell line; TTFields 48 h): 1.02
CI TTFields + Olap + 1 Gy (H157 cell line; TTFields 72 h): 1.66
CI TTFields + Olap + 2 Gy (H157 cell line; TTFields 72 h): 2.57
CI TTFields + Olap (H157 cell line; TTFields 72 h): 1.49
combined effect of TTFields, IR, and Olaparib on cell death (H1299 cell line [2]; [4]): synergistic
CI TTFields + Olap + 1 Gy (H1299 cell line [2]; TTFields 24 h): 1.64
CI TTFields + Olap + 2 Gy (H1299 cell line [2]; TTFields 24 h): 1.96
CI TTFields + Olap (H1299 cell line [2]; TTFields 24 h): 1.03
CI TTFields + Olap + 1 Gy (H1299 cell line [2]; TTFields 72 h): 1.89
CI TTFields + Olap + 2 Gy (H1299 cell line [2]; TTFields 72 h): 3.08
CI TTFields + Olap (H1299 cell line [2]; TTFields 72 h): 1.06

From patent publication US10953209B2, “Treating tumors using TTFields combined with a PARP inhibitor” (Board of Regents of the University of Texas System, priority 2018, dated 2021)
